“Also recorded” adds a separate entry of the source.
Assays:
siCIP2A [1] = experiment: siRNA binding assay (gel-shift); settings: 10:1 Peptide:siRNA molar ratio
Excerpt: Afterwards, the samples were electrophoresed on a 4% agarose gel and stained with ethidium bromide. Free siCIP2A was used as a normalizing control. An Ultra-Low Range DNA Ladder (Thermo Fisher Scientific, Waltham, MA) was used as a MW marker. Resulting siCIP2A bands were imaged and quantified using a G:Box Chemi XX6 and GeneSys image capture software (Syngene, Frederick, MD), respectively.

CAL 27 cells = experiment: Quantitative siRNA cell uptake assay; type: cell-based, human; settings: DY547-siCIP2A, 2 hours post-treatment; for siRNA delivery into cells (internalization) compared to 599: 50:1 Peptide:siRNA molar (12.5 N/P) ratio
Procedure: CAL 27 cells, grown to a confluency of 60% on a 24-well plate, were rinsed three times with Opti-MEM I Reduced Serum Media (Opti-MEM; Thermo Fisher Scientific). […] After complexation, the total volume was brought to 600 μL with Opti-MEM, after which the cells were incubated with 500 μL of peptide-siCIP2A complexes for 2 hours at 37° C. with 5% CO2. As an additional control, the cells were also transfected with 50 pmol of DY547-siCIP2A using Lipofectamine® 3000 (Thermo Fisher Scientific), according to the manufacturer's instructions. After treatment, the cells were rinsed three times with PBS, before being trypsinized for 10 minutes at 37° C., followed by centrifugation for 5 minutes at 1,000×g at 4° C. The cells were then washed with ice cold phosphate-buffered saline (PBS) and centrifuged again for 5 minutes at 1,000×g at 4° C. Next, the cells were lysed in 250 μl ice cold 0.1 M NaOH. The cell lysates were centrifuged at 4° C. for 5 minutes at 10,000×g to remove cell debris. Afterwards, 100 μL of each sample was transferred to a black 96-well plate to measure fluorescence at 530/590 nm using a BioTek (Winooski, VT) Synergy HT plate reader. Fluorescence measurements were converted to the amount of internalized siRNAs using a standard curve that was generated per experiment using known concentrations of DY547-siCIP2A ranging from 0-100 fmol/μl. Subsequently, the amount of internalized siRNA was normalized to the amount of protein, which was quantitated using the Pierce BCA Protein Assay Kit (Thermo Fisher Scientific).

[2] = Physicochemical measurements (Zetasizer) of peptide-siCIP2A complexes; settings: complex with siCIP2A at 50:1 Peptide:siRNA molar (12.5 N/P) ratio in water; for Particle Size: mean hydrodynamic size, dynamic light scattering, ± SD; for Particle Size / Zeta Potential: three experiments; for Zeta Potential: mean ± SD
Serum protection assay = type: in vitro ADME; settings: siCIP2A, 50:1, 50% human serum, 1 hour at 37° C.
Procedure: Afterwards, complexes were either treated or untreated with 50% human serum (final concentration; VWR, Radnor, PA) for 1 hour at 37° C., followed by denaturation with 4% SDS. Next, the samples were electrophoresed on a 4% agarose gel and resulting siCIP2A bands were imaged and quantified, as described above.

siCIP2A [3] = experiment: siRNA release assay (heparin competition); settings: 50:1 complexes; for siRNA release compared to 599: 0-10 μg heparin, 30 minutes at RT
Procedure: Afterwards complexes were incubated with either 0, 0.1, 0.5, 1.0, 2.0, 5.0 or 10 μg heparin (Millipore Sigma, St. Louis, MO) for 30 minutes at RT. The samples were then electrophoresed on a 4% agarose gel and resulting siCIP2A bands were imaged and quantified, as described above.

CIP2A mRNA [4] = experiment: CIP2A silencing in cells, real-time PCR; type: cell-based, human; settings: CAL 27 cells, 50:1, 48 hours
Procedure: CAL 27 cells, grown to a confluency of 60% on 24-well plates, were rinsed three times with Opti-MEM. […] Afterwards, the complexes were added to the cells at a siRNA concentration of 125 nM and incubated for 4 hours at 37° C. with 5% CO2, prior to adjusting the siRNA and FBS concentrations to 100 nM and 10%, respectively, with the addition of 50% FBS/Opti-MEM media. 48 hours post-treatment, the total RNA or protein was harvested for subsequent real-time PCR and Western blot analyses.
Total RNA was harvested using the RNeasy Mini Kit (Qiagen, Germantown, MD). RNA was then reverse transcribed using the High-Capacity cDNA Reverse Transcription Kit (Thermo Fisher Scientific) in a Bio-Rad (Hercules, CA) T100 Thermal Cycler. Next, quantitative real-time PCR was performed in an Applied Biosystems™ StepOnePlus™ Real-Time PCR machine (Thermo Fisher Scientific) using the TaqMan™ Fast Advanced Master Mix (Thermo Fisher Scientific) and predesigned TaqMan™ Gene Expression Assays (Thermo Fisher Scientific) for CIP2A (Hs00405413_m1) and 18S (4319413E), according to the manufacturer's instructions.

RNase A = experiment: RNase protection assay; type: biochemical; settings: siCIP2A, 50:1, 1 hour at 37° C.
RNase A, sequence (P61823 27-150): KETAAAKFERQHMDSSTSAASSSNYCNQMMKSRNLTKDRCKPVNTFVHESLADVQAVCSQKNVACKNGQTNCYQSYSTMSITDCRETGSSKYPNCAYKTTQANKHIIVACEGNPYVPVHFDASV
Procedure: Afterwards, complexes were either treated or untreated with 0.18 μg of RNase A (Thermo Fisher Scientific) for 1 hour at 37° C., followed by denaturation with 4% SDS. Next, the samples were electrophoresed on a 4% agarose gel and resulting siCIP2A bands were imaged and quantified, as described above.

CIP2A mRNA [5] = experiment: Dual peptide siRNA delivery system with GE11R9, CIP2A knockdown; type: cell-based, human; settings: CAL 27 cells

Substance	binding improvement relative to 599 (siCIP2A [1]) [%]	siRNA delivery into cells compared to 599 (CAL 27 cells; 30:1 Peptide:siRNA molar (7.5 N/P) ratio)	siRNA delivery into cells (internalization) compared to 599 (CAL 27 cells)	PDI (Polydispersity index) [2]	Particle Size [2] [nm]	Zeta Potential [2] [mV]	ability to protect siRNAs in the presence of serum, compared to 599 (Serum protection assay)	siRNA release compared to 599 (siCIP2A [3])	gene silencing in comparison to 599 / among the peptide variants (CIP2A mRNA [4])	ability to protect siRNAs in the presence of RNase A, compared to 599 (RNase A)	complexed siRNAs (maximally) released (siCIP2A [3]; increasing heparin, maximal at 4-fold excess and higher (≥2 μg; ≥120 pmol) of heparin) [%]	CIP2A knockdown with GE11R9 as compared to scrambled control peptide GE11SCR9 (CIP2A mRNA [5])
GlfeaieGfienGweGmidGwyGGGGRRRRRRRRRK [INF7D]	~20	dramatic and significant reduction in siRNA delivery into cells	significantly decreased levels of siRNA cell internalization; also recorded: adversely affect the intracellular delivery of siRNAs; also recorded: on average lower siRNA uptake abilities in comparison to 599; also recorded: poorest siRNA cell uptake	0.296	190.4 ± 94.6	28.2 ± 10.2	greatest instability in serum	No statistical differences in siRNA release	weakest gene silencing effect among the peptide variants	–	–	–
GlfeaieGfienGweGmidGwyGGGGrrrrrrrrrk [All-D]	–	–	on average lower siRNA uptake abilities in comparison to 599	0.366	185.9 ± 72.0	28.3 ± 7.7	did not differ from 599	poor siRNA release	–	did not differ from 599	~70	–
YHWYGYTPQNVIGGGGRRRRRRRRRK [GE11R9, EGFR-targeting derivative of GE11 peptide with a stretch of densely packed cationic amino acids]	–	–	–	–	–	–	–	–	–	–	–	shown to be specific
